Results on 14 substances are retold here after US5665700A, “Pharmaceutical formulations” (Skua Investments Limited, priority 1994, dated 1997).

Usually LD50 stands for the dose at which mortality reaches 50%.

Bounds are passed on as bounds.

The first series deals with reticulocyte counts. Kind of series: Oral EPO study in normal male volunteers: reticulocyte counts. The settings on record: Study Day 4, 10 IU/Kg intravenous infusion. The format is in vivo, human. Here is the method: (§1) Eight healthy, normal male volunteers participated in this study. After overnight fasting, on Study Day 1 the subjects received medication as follows:
(§2) Blood samples were collected at time 0, 0.5, 1, 2, 3, 4, 6, 10 and 14 hours after the medication; reticulocyte counts (%) were made and plasma EPO levels were measured by radioimmunoassay.
(§3) On Day 2 and Day 3, each subject was given the assigned coded study medications at 08:00 a.m., 14:00 p.m. and 22:00 p.m. and, after an overnight fast, on Study Day 4, each subject was examined again after having been given the study medications as above.
As for Erythropoietin [EPO], the Reticulocyte counts entry was “increased”.

System in the next series: not listed separately
Kind of series: Oral EPO study in normal male volunteers: plasma EPO levels by radioimmunoassay. The format is in vivo, human. The settings on record: Study Day 1, 10 IU/kg intravenous infusion. The method, then: as §1, §2, §3
Regarding Erythropoietin [EPO], the “plasma RIA-measured EPO levels” value is reported as “markedly increased”.

System in the next series: not given
Assay: not given
The settings on record: in vivo; cited from earlier work.
In the case of POE(2) stearyl ether, the LD50 is on record as over 25 g/kg. On to Sorbitan monolaurate, for which the 50% lethal dose (LD50) was 41 g/kg. As for POE(2) cetyl ether, the LD50 was 22 g/kg. In the case of Sorbitan trioleate, the LD50 was over 40 g/kg. As for POE(23) lauryl ether, the 50% lethal dose (LD50) is 9 g/kg.

POE(5) sorbitan monooleate: the LD50 was over 37 g/kg. For POE(2) oleyl ether, the LD50 is reported as 25 g/kg. As for POE(4) sorbitan monostearate, the LD50 is over 40 g/kg. Consider Sorbitan tristearate, for which the LD50 is over 16 g/kg. Turning to Sorbitan monostearate, the LD50 is 31 g/kg. With POE(4) lauryl ether, the LD50 is recorded as 9 g/kg. With Sorbitan monooleate, the LD50 is reported as over 40 g/kg. As to Sorbitan monopalmitate, the LD50 is over 16 g/kg.
